# Measured values as given in publication doi:10.1101/2021.06.01.446583v1 (biorxiv, 2021).
# What was measured:
# Fp231 [1] = test: CNP release at […] nm, Michaelis-Menten non-linear fit; format: biochemical, uncultured Paraglaciecola sp.; details: 0.1-4 mM substrate, 2 nM enzyme
# Fp231 [2] = test: fucose release by HPAEC-PAD, Michaelis-Menten non-linear fit; format: biochemical, uncultured Paraglaciecola sp.; details: 0.1-4 mM substrate, 2 nM enzyme
Km (Fp231 [1]),Km (Fp231 [2]),SMILES
140 ± 10 µM,–,"C[C@@H]1O[C@@H](Oc2ccc([N+](=O)[O-])cc2Cl)[C@@H](O)[C@H](O)[C@@H]1O [CNP-Fuc, 2-chloro-4-nitrophenyl-α-L-fucopyranoside]"
–,660 ± 50 µM,"CC(=O)N[C@H]1C(O)O[C@H](CO)[C@@H](O[C@@H]2O[C@@H](C)[C@@H](O)[C@@H](O)[C@@H]2O)[C@@H]1O (stereo partly drawn) [Fuc(α1,4)GlcNAc]"
